Article doi:10.1101/2024.09.11.612517v1 (bioRxiv, 2024)
Square brackets hold non-standard residues; d marks the D form. Peptide text beside a SMILES is read from it.

Key:
[1] = test system: VEGF-induced retinal vascular permeability; assay type: in vivo, Wistar rats; conditions: rats, single 0.5% eye drop at different times before intravitreal VEGF
[2] = Ocular pharmacokinetics after one eye drop, rats; assay type: in vivo, Wistar rats; conditions: 3 hours post-dose
[3] = Ocular pharmacokinetics after one eye drop, rabbits; assay type: in vivo, New Zealand white rabbits
[4] = NZ rabbits, single eyedrop of 0.5%, mean ± SEM, N = 3 eyes per timepoint, SEM
[5] = rabbits, single 0.5% eye drop, 24 hours

**Q.** With `CC[C@@H](C)[C@H]1NC(=O)[C@@H]([C@H](C)O)NC(=O)[C@@H](Cc2c[nH]cn2)NC(=O)CNC(=O)[C@@H](CCCNC(=N)N)NC(=O)CNC(=O)[C@@H](Cc2ccccc2)NC1=O` [VIAN-c4551] (cyclo([dI][dF]G[dR]G[dH][dT])) as the compound, how does the “Duration of protective effect against VEGF challenge after the eye drop” value [1] read?
**A.** 24 h

**Q.** What about the “Concentration in the vitreous (molar)” value [2] of the same compound?
**A.** ~0.391 µM

**Q.** And the “AUC0-24h, Retina-Choroid” value [3, 4]?
**A.** 467,434 ± 45,884 hours × ng g^-1

**Q.** What about the “AUC0-24h, Vitreous” value [3, 4] of the same compound?
**A.** 1,678 ± 182 hours × ng mL^-1

**Q.** And the “Cmax, Retina-Choroid” value [3, 4]?
**A.** 51,693.81 ± 6678.9 ng g^-1

**Q.** And the “Retina-choroid exposure at 24 hours above IC50” value ([3]; rabbits, 24 hours, vs IC50 for endothelial permeability)?
**A.** > 4 orders of magnitude

**Q.** What about the “Cmax in retina-choroid (molar)” value ([3]; rabbits, single 0.5% eye drop) of the same compound?
**A.** ~67 µM

**Q.** And the “Retina/choroid Cmax above IC50 (137.3 pM)” value ([3]; rabbits, single 0.5% eye drop)?
**A.** 5 orders of magnitude

**Q.** And the Cmax in retina-choroid ([3]; rabbits, single 0.5% eye drop (50 µL), HUVEC bioactivity read-out)?
**A.** 52 µg/g

**Q.** What about the “Exposure in retina-choroid after 24 hours” value [3, 5] of the same compound?
**A.** 3.5 µg/g

**Q.** And the “Exposure in retina-choroid after 24 hours (molar)” value [3, 5]?
**A.** ~4.64 µM

**Q.** And the “Exposure in vitreous after 24 hours” value [3, 5]?
**A.** 10.6 ng/mL

**Q.** And the “Exposure in vitreous after 24 hours (molar)” value [3, 5]?
**A.** ~13.88 nM

**Q.** What about the “Time for which high retina-choroid levels lasted” value ([3]; rabbits, single topical instillation of 0.5%) of the same compound?
**A.** 24 h
